# How the values were obtained:
# Type in all cases: biochemical
# JAK2 = biological target: T1, JAK2 (Homo sapiens, UniProt O60674); experiment: JAK2 enzyme inhibition test (LANCE method); settings: 1 μM test compound; for inhibition at 1 µM: read-out: JAK2 enzyme inhibitory activity (%, 1 μM)
# T1 construct: purchased Invitrogen
# Procedure, shortened: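 Recombinant JAK2 (6 ng/mL solution) phosphorylated ULight-JAK1 peptide (300 nM solution) with ATP (45 μM solution) in pH 7.5 HEPES/MgCl2/DTT buffer for 1 hr at room temperature. After EDTA stop and europium anti-phosphotyrosine antibody for 1 hr, TR-FRET read at 665 nm; inhibition relative to enzyme-free wells as 100%.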
# TYK2 = biological target: T2, TYK2 (Homo sapiens, UniProt P29597); experiment: TYK2 enzyme inhibition test (LANCE method); settings: 1 μM test compound; for inhibition at 1 µM: read-out: TYK2 enzyme inhibitory activity (%, 1 μM)
# T2 construct: purchased Invitrogen
# T2 sequence (P29597 whole entry): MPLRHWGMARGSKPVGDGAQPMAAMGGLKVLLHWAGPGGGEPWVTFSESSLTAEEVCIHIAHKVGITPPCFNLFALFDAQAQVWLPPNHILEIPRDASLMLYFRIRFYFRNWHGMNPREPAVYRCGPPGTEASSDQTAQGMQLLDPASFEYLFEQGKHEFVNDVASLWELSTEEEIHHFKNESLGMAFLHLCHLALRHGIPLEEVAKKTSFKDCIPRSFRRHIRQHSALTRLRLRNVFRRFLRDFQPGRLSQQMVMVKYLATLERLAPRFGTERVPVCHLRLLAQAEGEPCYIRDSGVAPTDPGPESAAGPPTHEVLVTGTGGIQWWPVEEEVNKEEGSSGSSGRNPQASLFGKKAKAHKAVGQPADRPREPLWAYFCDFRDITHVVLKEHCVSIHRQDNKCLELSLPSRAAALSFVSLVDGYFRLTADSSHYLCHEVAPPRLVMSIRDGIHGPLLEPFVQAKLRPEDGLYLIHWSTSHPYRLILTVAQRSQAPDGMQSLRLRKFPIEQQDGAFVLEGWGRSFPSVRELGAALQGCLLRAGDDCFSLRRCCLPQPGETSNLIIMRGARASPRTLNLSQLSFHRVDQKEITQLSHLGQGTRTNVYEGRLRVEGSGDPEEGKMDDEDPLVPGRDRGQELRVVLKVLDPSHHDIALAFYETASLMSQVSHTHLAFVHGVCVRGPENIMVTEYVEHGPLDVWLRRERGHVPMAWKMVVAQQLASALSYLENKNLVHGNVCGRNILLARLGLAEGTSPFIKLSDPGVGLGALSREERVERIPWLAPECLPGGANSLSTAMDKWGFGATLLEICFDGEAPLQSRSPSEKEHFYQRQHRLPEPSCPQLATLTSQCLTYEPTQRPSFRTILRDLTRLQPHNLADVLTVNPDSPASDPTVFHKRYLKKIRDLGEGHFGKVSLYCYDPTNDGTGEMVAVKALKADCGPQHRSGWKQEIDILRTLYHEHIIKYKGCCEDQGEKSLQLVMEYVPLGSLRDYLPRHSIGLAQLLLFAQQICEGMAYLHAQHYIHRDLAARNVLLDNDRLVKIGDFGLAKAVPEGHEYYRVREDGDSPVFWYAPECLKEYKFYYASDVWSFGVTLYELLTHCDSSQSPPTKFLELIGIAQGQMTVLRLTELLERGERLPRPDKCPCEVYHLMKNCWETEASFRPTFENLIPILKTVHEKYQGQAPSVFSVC
# Procedure, shortened: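 Recombinant TYK2 (375 ng/mL working solution) with ULight-JAK1 peptide (300 nM working solution) and ATP (30 μM working solution) in HEPES pH 7.5 buffer with MgCl2, EGTA, DTT, Tween20, BSA, reacted 1 h at RT. EDTA-stopped, Eu-anti-phosphotyrosine TR-FRET read at 665 nm; inhibition relative to enzyme-free wells as 100%.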
# JAK1 = biological target: T3, JAK1 (Homo sapiens, UniProt P23458); experiment: JAK1 enzyme inhibition test (LANCE method); settings: 1 μM test compound; for inhibition at 1 µM: read-out: JAK1 enzyme inhibitory activity (%, 1 μM)
# T3 construct: purchased Invitrogen
# T3 sequence (P23458 whole entry): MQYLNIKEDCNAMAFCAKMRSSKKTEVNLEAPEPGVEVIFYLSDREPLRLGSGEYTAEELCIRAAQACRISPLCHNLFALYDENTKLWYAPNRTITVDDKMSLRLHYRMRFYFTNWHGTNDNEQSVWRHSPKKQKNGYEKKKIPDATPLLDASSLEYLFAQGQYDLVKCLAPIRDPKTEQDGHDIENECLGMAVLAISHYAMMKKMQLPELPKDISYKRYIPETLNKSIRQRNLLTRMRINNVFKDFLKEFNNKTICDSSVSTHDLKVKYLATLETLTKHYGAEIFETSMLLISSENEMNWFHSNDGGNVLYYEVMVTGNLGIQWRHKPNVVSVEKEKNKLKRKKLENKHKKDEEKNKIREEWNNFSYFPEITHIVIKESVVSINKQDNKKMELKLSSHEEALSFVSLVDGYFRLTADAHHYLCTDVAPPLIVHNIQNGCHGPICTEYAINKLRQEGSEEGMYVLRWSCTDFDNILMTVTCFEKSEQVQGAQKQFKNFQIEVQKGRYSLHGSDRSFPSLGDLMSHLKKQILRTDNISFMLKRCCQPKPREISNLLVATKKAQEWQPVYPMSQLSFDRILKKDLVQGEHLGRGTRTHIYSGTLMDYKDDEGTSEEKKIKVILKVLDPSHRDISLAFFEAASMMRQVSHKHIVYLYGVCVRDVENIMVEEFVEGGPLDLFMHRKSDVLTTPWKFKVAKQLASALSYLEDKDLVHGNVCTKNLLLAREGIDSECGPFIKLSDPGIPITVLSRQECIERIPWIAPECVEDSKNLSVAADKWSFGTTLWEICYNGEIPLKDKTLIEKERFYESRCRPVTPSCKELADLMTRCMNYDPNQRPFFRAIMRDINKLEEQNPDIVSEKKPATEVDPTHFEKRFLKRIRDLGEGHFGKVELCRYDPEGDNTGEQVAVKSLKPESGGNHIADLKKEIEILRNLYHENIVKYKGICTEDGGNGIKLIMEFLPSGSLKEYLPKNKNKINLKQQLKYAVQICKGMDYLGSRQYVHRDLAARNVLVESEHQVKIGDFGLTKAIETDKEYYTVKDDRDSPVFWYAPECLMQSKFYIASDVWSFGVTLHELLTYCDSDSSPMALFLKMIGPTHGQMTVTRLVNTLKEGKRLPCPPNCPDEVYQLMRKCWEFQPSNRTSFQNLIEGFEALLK
# Procedure, shortened: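 TR-FRET (LANCE) with ULight-JAK1 peptide (300 nM working solution) and ATP (150 μM working solution) in HEPES pH 7.5, MgCl2, EGTA, DTT buffer; 1 h at room temperature. EDTA stop plus Eu-anti-phosphotyrosine antibody, 665 nm read after 1 h. Inhibition relative to enzyme-free wells as 100%.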
# JAK3 = biological target: T4, JAK3 (Homo sapiens, UniProt P52333); experiment: JAK3 enzyme inhibition test (LANCE method); settings: 1 μM test compound; for inhibition at 1 µM: read-out: JAK3 enzyme inhibitory activity (%, 1 μM)
# T4 construct: purchased Invitrogen
# T4 sequence (P52333 1-1124): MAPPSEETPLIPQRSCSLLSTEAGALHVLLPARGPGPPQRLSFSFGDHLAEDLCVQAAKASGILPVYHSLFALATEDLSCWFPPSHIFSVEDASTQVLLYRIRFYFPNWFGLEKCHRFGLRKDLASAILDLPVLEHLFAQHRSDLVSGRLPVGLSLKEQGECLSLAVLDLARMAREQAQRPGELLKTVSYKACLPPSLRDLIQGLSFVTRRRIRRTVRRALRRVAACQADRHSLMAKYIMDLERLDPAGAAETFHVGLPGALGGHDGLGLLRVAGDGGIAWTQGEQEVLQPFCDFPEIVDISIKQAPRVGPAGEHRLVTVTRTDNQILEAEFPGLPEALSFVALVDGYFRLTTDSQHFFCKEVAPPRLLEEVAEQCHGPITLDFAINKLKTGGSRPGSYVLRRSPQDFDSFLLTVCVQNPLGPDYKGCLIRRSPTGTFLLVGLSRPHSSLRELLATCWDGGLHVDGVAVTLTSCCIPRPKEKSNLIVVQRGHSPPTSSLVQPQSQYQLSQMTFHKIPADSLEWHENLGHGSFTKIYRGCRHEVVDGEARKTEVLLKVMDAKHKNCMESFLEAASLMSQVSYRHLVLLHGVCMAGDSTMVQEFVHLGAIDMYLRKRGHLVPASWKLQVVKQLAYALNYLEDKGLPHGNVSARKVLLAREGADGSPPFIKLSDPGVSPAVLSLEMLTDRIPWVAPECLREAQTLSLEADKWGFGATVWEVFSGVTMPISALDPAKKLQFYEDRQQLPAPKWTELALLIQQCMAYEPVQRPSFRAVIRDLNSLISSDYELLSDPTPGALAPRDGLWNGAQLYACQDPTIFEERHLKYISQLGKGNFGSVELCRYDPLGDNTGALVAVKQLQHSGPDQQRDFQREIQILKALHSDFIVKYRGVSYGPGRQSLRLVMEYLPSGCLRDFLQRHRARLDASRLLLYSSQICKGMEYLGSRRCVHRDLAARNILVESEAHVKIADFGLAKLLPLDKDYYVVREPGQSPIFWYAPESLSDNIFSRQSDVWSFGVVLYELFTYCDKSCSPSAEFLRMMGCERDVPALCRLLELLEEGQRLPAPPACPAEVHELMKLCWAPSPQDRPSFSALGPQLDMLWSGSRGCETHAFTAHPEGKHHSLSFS
# Procedure, shortened: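 Recombinant JAK3 (12 ng/mL solution) with ULight-JAK1 peptide (300 nM solution) and ATP (15 μM solution) in HEPES pH 7.5 buffer, 1 h at room temperature. EDTA stop with Eu-anti-phosphotyrosine antibody; TR-FRET at 665 nm. Inhibition relative to enzyme-free wells as 100%.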
# T1 sequence (O60674 whole entry): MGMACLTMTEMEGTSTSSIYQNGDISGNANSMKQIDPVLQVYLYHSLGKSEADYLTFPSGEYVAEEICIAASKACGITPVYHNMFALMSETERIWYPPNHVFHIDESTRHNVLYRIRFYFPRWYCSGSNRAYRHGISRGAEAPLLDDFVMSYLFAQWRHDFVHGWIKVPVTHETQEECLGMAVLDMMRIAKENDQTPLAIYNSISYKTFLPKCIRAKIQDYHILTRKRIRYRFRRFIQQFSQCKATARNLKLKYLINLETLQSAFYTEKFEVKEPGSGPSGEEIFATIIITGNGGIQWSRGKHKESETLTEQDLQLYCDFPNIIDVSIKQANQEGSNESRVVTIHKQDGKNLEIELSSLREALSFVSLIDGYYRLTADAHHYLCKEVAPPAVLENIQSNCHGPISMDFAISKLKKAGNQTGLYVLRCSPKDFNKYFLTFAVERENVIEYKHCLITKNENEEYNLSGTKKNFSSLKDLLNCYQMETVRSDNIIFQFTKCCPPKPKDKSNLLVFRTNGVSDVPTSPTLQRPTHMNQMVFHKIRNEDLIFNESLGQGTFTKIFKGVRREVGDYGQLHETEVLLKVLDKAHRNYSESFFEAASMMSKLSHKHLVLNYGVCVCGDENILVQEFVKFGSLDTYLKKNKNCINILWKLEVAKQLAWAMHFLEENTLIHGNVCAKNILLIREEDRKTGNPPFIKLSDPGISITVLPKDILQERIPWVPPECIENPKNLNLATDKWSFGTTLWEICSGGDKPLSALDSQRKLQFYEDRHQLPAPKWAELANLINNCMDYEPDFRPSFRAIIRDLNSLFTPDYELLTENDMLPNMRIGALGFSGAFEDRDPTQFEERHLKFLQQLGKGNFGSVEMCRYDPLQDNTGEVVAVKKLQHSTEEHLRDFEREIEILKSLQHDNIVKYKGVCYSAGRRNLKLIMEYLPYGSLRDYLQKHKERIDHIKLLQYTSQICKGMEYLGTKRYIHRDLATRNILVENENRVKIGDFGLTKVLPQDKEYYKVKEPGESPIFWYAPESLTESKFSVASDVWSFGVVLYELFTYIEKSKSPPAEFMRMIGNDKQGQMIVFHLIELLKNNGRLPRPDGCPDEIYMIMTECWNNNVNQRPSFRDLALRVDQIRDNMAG
SMILES,inhibition at 1 µM (JAK2) [%],inhibition at 1 µM (TYK2) [%],inhibition at 1 µM (JAK1) [%],inhibition at 1 µM (JAK3) [%],"JAK1 enzyme inhibitory activity (%, 1 μM) (JAK1) [%]","JAK2 enzyme inhibitory activity (%, 1 μM) (JAK2) [%]","TYK2 enzyme inhibitory activity (%, 1 μM) (TYK2) [%]","JAK3 enzyme inhibitory activity (%, 1 μM) (JAK3) [%]"
"Cn1nc(-c2cn(C(C3CC3)C3CC3)c(=O)c3c(N)n[nH]c23)cc1N1C2CCC1COC2 [Example 151, 3-amino-5-(dicyclopropylmethyl)-7-(1-methyl-5-(3-oxa-8-azabicyclo[3.2.1]oct-8-yl)-1H-pyrazol-3-yl)-1,5-dihydro-4H-pyrazolo[4,3-c]pyridin-4-one]",100,102,99,101,–,–,–,–
"CC1CCCCC1n1cc(-c2cc(N3CCOCC3)n(C)n2)c2[nH]nc(N)c2c1=O (stereo not drawn) [Example 155, 3-amino-5-(2-methylcyclohexyl)-7-(1-methyl-5-(morpholin-4-yl)-1H-pyrazol-3-yl)-1,5-dihydro-4H-pyrazolo[4,3-c]pyridin-4-one]",–,–,–,–,76,81,101,98
"Cn1nc(-c2cn(C(C3CC3)C3CC3)c(=O)c3c(N)n[nH]c23)cc1N1CCC[C@@H]1CN1CCCC1 [Example 158, 3-amino-5-(dicyclopropylmethyl)-7-(1-methyl-5-((2R)-2-(pyrrolidin-1-ylmethyl)pyrrolidin-1-yl)-1H-pyrazol-3-yl)-1,5-dihydro-4H-pyrazolo[4,3-c]pyridin-4-one]",99,101,92,100,–,–,–,–
"COC[C@H]1CCCN1c1cc(-c2cn(C(C3CC3)C3CC3)c(=O)c3c(N)n[nH]c23)nn1C [Example 159, 3-amino-5-(dicyclopropylmethyl)-7-(5-((2R)-2-(methoxymethyl)pyrrolidin-1-yl)-1-methyl-1H-pyrazol-3-yl)-1,5-dihydro-4H-pyrazolo[4,3-c]pyridin-4-one]",99,100,99,100,–,–,–,–
"CN(C)[C@H]1CCN(c2cc(-c3cn(C(C4CC4)C4CC4)c(=O)c4c(N)n[nH]c34)nn2C)C1 [Example 160, 3-amino-5-(dicyclopropylmethyl)-7-(5-((3S)-3-(dimethylamino)pyrrolidin-1-yl)-1-methyl-1H-pyrazol-3-yl)-1,5-dihydro-4H-pyrazolo[4,3-c]pyridin-4-one]",100,100,99,100,–,–,–,–
"Cn1nc(-c2cn(C(C3CC3)C3CC3)c(=O)c3c(N)n[nH]c23)cc1C1CC1 [Example 161, 3-amino-7-(5-cyclopropyl-1-methyl-1H-pyrazol-3-yl)-5-(dicyclopropylmethyl)-1,5-dihydro-4H-pyrazolo[4,3-c]pyridin-4-one]",99,100,100,100,–,–,–,–
"Cn1nc(-c2cn(C(C3CC3)C3CC3)c(=O)c3c(N)n[nH]c23)cc1N1CCN2CCC[C@H]2C1 [Example 162, 3-amino-5-(dicyclopropylmethyl)-7-(5-((8aS)-hexahydropyrrolo[1,2-a]pyrazin-2(1H)-yl)-1-methyl-1H-pyrazol-3-yl)-1,5-dihydro-4H-pyrazolo[4,3-c]pyridin-4-one]",100,101,99,100,–,–,–,–

# Second part, the compound after the results:
inhibition at 1 µM (JAK2) [%],inhibition at 1 µM (TYK2) [%],inhibition at 1 µM (JAK1) [%],inhibition at 1 µM (JAK3) [%],"JAK1 enzyme inhibitory activity (%, 1 μM) (JAK1) [%]","JAK2 enzyme inhibitory activity (%, 1 μM) (JAK2) [%]","TYK2 enzyme inhibitory activity (%, 1 μM) (TYK2) [%]","JAK3 enzyme inhibitory activity (%, 1 μM) (JAK3) [%]",SMILES
99,106,100,101,–,–,–,–,"CN1CCN(c2cc(-c3cn(C(C4CC4)C4CC4)c(=O)c4c(N)n[nH]c34)nn2C)CC1 [Example 149, 3-amino-5-(dicyclopropylmethyl)-7-(1-methyl-5-(4-methylpiperazin-1-yl)-1H-pyrazol-3-yl)-1,5-dihydro-4H-pyrazolo[4,3-c]pyridin-4-one]"
100,102,98,101,–,–,–,–,"CN1CCCN(c2cc(-c3cn(C(C4CC4)C4CC4)c(=O)c4c(N)n[nH]c34)nn2C)CC1 [Example 150, 3-amino-5-(dicyclopropylmethyl)-7-(1-methyl-5-(4-methyl-1,4-diazepan-1-yl)-1H-pyrazol-3-yl)-1,5-dihydro-4H-pyrazolo[4,3-c]pyridin-4-one]"
101,102,–,101,100,–,–,–,"CC1CCCCC1n1cc(-c2cc(N3CCOCC3)n(C)n2)c2[nH]nc(N)c2c1=O (stereo not drawn) [Example 152, 3-amino-5-(2-methylcyclohexyl)-7-(1-methyl-5-(morpholin-4-yl)-1H-pyrazol-3-yl)-1,5-dihydro-4H-pyrazolo[4,3-c]pyridin-4-one]"
–,–,–,–,99,98,103,101,"CC1CCCCC1n1cc(-c2cc(N3CCOCC3)n(C)n2)c2[nH]nc(N)c2c1=O (stereo not drawn) [Example 153, 3-amino-5-(2-methylcyclohexyl)-7-(1-methyl-5-(morpholin-4-yl)-1H-pyrazol-3-yl)-1,5-dihydro-4H-pyrazolo[4,3-c]pyridin-4-one]"
–,–,–,–,97,98,102,100,"CC1CCCCC1n1cc(-c2cc(N3CCOCC3)n(C)n2)c2[nH]nc(N)c2c1=O (stereo not drawn) [Example 154, 3-amino-5-(2-methylcyclohexyl)-7-(1-methyl-5-(morpholin-4-yl)-1H-pyrazol-3-yl)-1,5-dihydro-4H-pyrazolo[4,3-c]pyridin-4-one]"
99,100,100,100,–,–,–,–,"CN(C)[C@@H]1CCN(c2cc(-c3cn(C(C4CC4)C4CC4)c(=O)c4c(N)n[nH]c34)nn2C)C1 [Example 156, 3-amino-5-(dicyclopropylmethyl)-7-(5-((3R)-3-(dimethylamino)pyrrolidin-1-yl)-1-methyl-1H-pyrazol-3-yl)-1,5-dihydro-4H-pyrazolo[4,3-c]pyridin-4-one]"
99,101,99,100,–,–,–,–,"Cn1nc(-c2cn(C(C3CC3)C3CC3)c(=O)c3c(N)n[nH]c23)cc1N1CCC[C@@H]1CO [Example 157, 3-amino-5-(dicyclopropylmethyl)-7-(5-((2R)-2-(hydroxymethyl)pyrrolidin-1-yl)-1-methyl-1H-pyrazol-3-yl)-1,5-dihydro-4H-pyrazolo[4,3-c]pyridin-4-one]"
100,101,100,100,–,–,–,–,"Cn1nc(-c2cn(C(C3CC3)C3CC3)c(=O)c3c(N)n[nH]c23)cc1N1CCN2CCC[C@@H]2C1 [Example 163, 3-amino-5-(dicyclopropylmethyl)-7-(5-((8aR)-hexahydropyrrolo[1,2-a]pyrazin-2(1H)-yl)-1-methyl-1H-pyrazol-3-yl)-1,5-dihydro-4H-pyrazolo[4,3-c]pyridin-4-one]"
